# Measurements from US12559506B2, “Indazole based compounds and associated methods of use” (Arvinas Operations, Inc., priority 2021, dated 2026).
# Molecular target: T1, LRRK2 (endogenous, HiBit tagged) (Homo sapiens, UniProt Q5S007)
# T1 construct: endogenous in cells; host or cells: HEK293 cells with HiBit knock-in at the endogenous LRRK2 locus, stably expressing firefly luciferase
# Test: Endogenous LRRK2 degradation assay, endogenous gene C-terminally HiBit-tagged in HEK293 cells (Nano-Glo Dual Luciferase)
# Format: cell-based
# Conditions: endogenous HiBit-tagged LRRK2 in HEK293 cells, 24 hours treatment; for DC50: read-out: Endogenous WT DC50; for Dmax: read-out: Endogenous WT Dmax
# Procedure, shortened: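 LRRK2-HiBit quantified via Nano-Glo Dual Luciferase in HEK293 knock-in cells co-expressing firefly luciferase, after 24 h exposure to compound (1 μM final top, 1:3, 11 points). Values normalised to DMSO median per plate and curve-fitted; Alamar Blue viability run alongside.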
# T1 sequence (Q5S007 whole entry): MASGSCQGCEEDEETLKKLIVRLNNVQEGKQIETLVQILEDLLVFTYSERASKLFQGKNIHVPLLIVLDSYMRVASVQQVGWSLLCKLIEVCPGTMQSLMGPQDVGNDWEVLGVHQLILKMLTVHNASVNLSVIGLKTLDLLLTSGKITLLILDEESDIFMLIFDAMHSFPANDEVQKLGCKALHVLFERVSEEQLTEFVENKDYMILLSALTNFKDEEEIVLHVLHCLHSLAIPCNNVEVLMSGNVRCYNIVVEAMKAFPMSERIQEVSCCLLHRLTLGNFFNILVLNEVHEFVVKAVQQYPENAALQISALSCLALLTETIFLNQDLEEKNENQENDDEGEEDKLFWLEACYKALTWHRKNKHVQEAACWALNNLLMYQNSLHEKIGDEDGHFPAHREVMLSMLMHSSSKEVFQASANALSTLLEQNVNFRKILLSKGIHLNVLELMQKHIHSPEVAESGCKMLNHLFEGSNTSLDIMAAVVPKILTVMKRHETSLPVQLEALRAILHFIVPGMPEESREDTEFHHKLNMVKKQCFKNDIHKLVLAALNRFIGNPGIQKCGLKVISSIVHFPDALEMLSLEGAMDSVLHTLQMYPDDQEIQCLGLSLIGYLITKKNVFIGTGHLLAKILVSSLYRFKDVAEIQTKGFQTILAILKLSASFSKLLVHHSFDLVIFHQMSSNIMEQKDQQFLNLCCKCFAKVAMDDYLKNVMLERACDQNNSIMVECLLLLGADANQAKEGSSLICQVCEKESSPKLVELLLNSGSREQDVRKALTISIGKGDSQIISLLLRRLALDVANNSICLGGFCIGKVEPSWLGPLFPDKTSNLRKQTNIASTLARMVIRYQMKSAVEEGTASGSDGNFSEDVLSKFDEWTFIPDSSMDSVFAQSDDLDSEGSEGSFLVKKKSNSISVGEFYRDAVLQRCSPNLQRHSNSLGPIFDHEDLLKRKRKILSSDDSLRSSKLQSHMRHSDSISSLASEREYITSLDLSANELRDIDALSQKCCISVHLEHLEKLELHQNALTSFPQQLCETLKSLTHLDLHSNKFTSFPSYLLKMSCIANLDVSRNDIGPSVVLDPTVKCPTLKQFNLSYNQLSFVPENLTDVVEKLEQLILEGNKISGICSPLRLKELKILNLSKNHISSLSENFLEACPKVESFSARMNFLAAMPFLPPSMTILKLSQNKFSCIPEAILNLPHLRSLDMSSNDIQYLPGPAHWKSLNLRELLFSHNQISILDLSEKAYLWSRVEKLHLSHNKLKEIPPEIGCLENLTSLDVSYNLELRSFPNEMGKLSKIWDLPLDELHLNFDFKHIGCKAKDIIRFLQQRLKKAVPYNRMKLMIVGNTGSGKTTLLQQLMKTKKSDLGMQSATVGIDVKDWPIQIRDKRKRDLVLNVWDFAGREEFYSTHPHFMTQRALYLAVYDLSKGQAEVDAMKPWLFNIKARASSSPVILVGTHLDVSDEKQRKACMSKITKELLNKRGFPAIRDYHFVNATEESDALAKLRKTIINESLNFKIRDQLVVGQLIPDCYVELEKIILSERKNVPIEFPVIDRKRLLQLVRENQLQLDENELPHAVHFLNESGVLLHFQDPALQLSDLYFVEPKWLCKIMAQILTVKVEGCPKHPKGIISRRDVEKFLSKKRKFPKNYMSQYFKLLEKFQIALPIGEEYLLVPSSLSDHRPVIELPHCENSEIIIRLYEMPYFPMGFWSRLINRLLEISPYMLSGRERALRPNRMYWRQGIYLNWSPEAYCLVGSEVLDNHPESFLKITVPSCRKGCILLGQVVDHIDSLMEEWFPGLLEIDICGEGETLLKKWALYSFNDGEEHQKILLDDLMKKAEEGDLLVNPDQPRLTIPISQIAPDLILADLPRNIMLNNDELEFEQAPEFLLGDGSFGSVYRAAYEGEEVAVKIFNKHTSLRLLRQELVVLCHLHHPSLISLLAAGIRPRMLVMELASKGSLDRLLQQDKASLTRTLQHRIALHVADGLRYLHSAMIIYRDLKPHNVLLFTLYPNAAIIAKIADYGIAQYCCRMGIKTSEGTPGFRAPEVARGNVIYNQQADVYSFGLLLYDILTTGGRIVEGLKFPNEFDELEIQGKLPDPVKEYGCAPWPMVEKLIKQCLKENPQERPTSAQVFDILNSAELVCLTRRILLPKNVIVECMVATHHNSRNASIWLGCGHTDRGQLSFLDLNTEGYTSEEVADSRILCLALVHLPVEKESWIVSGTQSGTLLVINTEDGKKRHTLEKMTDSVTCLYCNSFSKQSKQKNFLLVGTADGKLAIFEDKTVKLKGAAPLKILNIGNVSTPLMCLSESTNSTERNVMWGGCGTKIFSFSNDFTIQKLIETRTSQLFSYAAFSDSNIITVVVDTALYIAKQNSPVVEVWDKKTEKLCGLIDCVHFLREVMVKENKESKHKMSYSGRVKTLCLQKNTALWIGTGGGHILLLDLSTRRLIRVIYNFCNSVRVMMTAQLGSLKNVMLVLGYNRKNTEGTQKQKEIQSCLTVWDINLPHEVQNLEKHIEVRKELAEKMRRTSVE
Structure (SMILES),DC50 [nM],Dmax [%]
"CC1(Oc2cc3c(-c4cc(N5CCN(C[C@H]6CC[C@H](CN7CCN(c8ccc9c(c8F)CN(C8CCC(=O)NC8=O)C9=O)CC7)CC6)CC5)ncn4)n[nH]c3cc2F)CC1 (stereo partly drawn) [Compound 203, 3-[4-fluoro-1-oxo-5-(4-{[(1r,4r)-4-[(4-{6-[6-fluoro-5-(1-methylcyclopropoxy)-1H-indazol-3-yl]pyrimidin-4-yl}piperazin-1-yl)methyl]cyclohexyl]methyl}piperazin-1-yl)-2,3-dihydro-1H-isoindol-2-yl]piperidine-2,6-dione]",< 10,≥ 70
"CC1(Oc2ccc3[nH]nc(-c4cc(N5CCC(CC6(F)CCN(CC7CCN(c8ccc9c(c8F)CN(C8CCC(=O)NC8=O)C9=O)CC7)CC6)CC5)ncn4)c3c2)CC1 (stereo not drawn) [Compound 206, 3-[4-fluoro-5-[4-[[4-fluoro-4-[[1-[6-[5-(1-methylcyclopropoxy)-1H-indazol-3-yl]pyrimidin-4-yl]-4-piperidyl]methyl]-1-piperidyl]methyl]-1-piperidyl]-1-oxo-isoindolin-2-yl]piperidine-2,6-dione]",< 10,≥ 70
"CC1(Oc2cc3c(-c4cc(N5CCC(CC6(F)CCN(CC7CCN(c8ccc9c(c8F)CN(C8CCC(=O)NC8=O)C9=O)CC7)CC6)CC5)ncn4)n[nH]c3cc2F)CC1 (stereo not drawn) [Compound 207, 3-[4-fluoro-5-[4-[[4-fluoro-4-[[1-[6-[6-fluoro-5-(1-methylcyclopropoxy)-1H-indazol-3-yl]pyrimidin-4-yl]-4-piperidyl]methyl]-1-piperidyl]methyl]-1-piperidyl]-1-oxo-isoindolin-2-yl]piperidine-2,6-dione]",10 to 50,50 to 70
"CC1(Oc2ccc3n[nH]c(-c4cc(N5CCC(O[C@H]6CC[C@H](CN7CCN(c8cc9c(cc8F)C(=O)N(C8CCC(=O)NC8=O)C9)CC7)CC6)CC5)ncn4)c3c2)CC1 (stereo partly drawn) [Compound 208, 3-[6-fluoro-5-[4-[[4-[[1-[6-[5-(1-methylcyclopropoxy)-2H-indazol-3-yl]pyrimidin-4-yl]-4-piperidyl]oxy]cyclohexyl]methyl]piperazin-1-yl]-1-oxo-isoindolin-2-yl]piperidine-2,6-dione]",< 10,50 to 70
"CC1(Oc2ccc3n[nH]c(-c4cc(N5CCC(CN6CCN(CC7(F)CCN(c8ccc9c(c8F)CN(C8CCC(=O)NC8=O)C9=O)CC7)CC6)CC5)ncn4)c3c2)CC1 (stereo not drawn) [Compound 209, 3-[4-fluoro-5-[4-fluoro-4-[[4-[[1-[6-[5-(1-methylcyclopropoxy)-2H-indazol-3-yl]pyrimidin-4-yl]-4-piperidyl]methyl]piperazin-1-yl]methyl]-1-piperidyl]-1-oxo-isoindolin-2-yl]piperidine-2,6-dione]",< 10,≥ 70
"CC1(Oc2cc3c(-c4cc(N5CCC(O[C@H]6CC[C@H](OC7CCN(c8ccc9c(c8F)CN(C8CCC(=O)NC8=O)C9=O)CC7)CC6)CC5)ncn4)n[nH]c3cn2)CC1 (stereo partly drawn) [Compound 210, 3-[4-fluoro-5-[4-[4-[[1-[6-[5-(1-methylcyclopropoxy)-1H-pyrazolo[3,4-c]pyridin-3-yl]pyrimidin-4-yl]-4-piperidyl]oxy]cyclohexoxy]-1-piperidyl]-1-oxo-isoindolin-2-yl]piperidine-2,6-dione]",< 10,≥ 70
"COc1c(N2CCC(CN3CCN(CC4CCN(c5cc(-c6n[nH]c7ccc(OC8(C)CC8)cc67)ncn5)CC4)CC3)CC2)ccc2c1CN(C1CCC(=O)NC1=O)C2=O (stereo not drawn) [Compound 211, 3-[4-methoxy-5-[4-[[4-[[1-[6-[5-(1-methylcyclopropoxy)-1H-indazol-3-yl]pyrimidin-4-yl]-4-piperidyl]methyl]piperazin-1-yl]methyl]-1-piperidyl]-1-oxo-isoindolin-2-yl]piperidine-2,6-dione]",< 10,≥ 70
"COc1c(N2CCC(CN3CCC(F)(CN4CCN(c5cc(-c6n[nH]c7ccc(OC8(C)CC8)cc67)ncn5)CC4)CC3)CC2)ccc2c1CN(C1CCC(=O)NC1=O)C2=O (stereo not drawn) [Compound 212, 3-[5-[4-[[4-fluoro-4-[[4-[6-[5-(1-methylcyclopropoxy)-1H-indazol-3-yl]pyrimidin-4-yl]piperazin-1-yl]methyl]-1-piperidyl]methyl]-1-piperidyl]-4-methoxy-1-oxo-isoindolin-2-yl]piperidine-2,6-dione]",< 10,50 to 70
"CC1(Oc2ccc3n[nH]c(-c4cc(N5CCC(O[C@H]6CC[C@H](CN7CCN(c8ccc9c(c8F)CN(C8CCC(=O)NC8=O)C9=O)CC7)CC6)CC5)ncn4)c3c2)CC1 (stereo partly drawn) [Compound 213, 3-[4-fluoro-5-[4-[[4-[[1-[6-[5-(1-methylcyclopropoxy)-2H-indazol-3-yl]pyrimidin-4-yl]-4-piperidyl]oxy]cyclohexyl]methyl]piperazin-1-yl]-1-oxo-isoindolin-2-yl]piperidine-2,6-dione]",< 10,≥ 70
"CC1(Oc2ccc3n[nH]c(-c4cc(N5CCC(CN6CCN(CC7CCN(c8ccc(F)c9c8CN(C8CCC(=O)NC8=O)C9=O)CC7)CC6)CC5)ncn4)c3c2)CC1 (stereo not drawn) [Compound 214, 3-[7-fluoro-4-[4-[[4-[[1-[6-[5-(1-methylcyclopropoxy)-2H-indazol-3-yl]pyrimidin-4-yl]-4-piperidyl]methyl]piperazin-1-yl]methyl]-1-piperidyl]-1-oxo-isoindolin-2-yl]piperidine-2,6-dione]",< 10,≥ 70
"COc1cc(N2CCC(CN3CCN(CC4CCN(c5cc(-c6n[nH]c7ccc(OC8(C)CC8)cc67)ncn5)CC4)CC3)CC2)cc2c1C(=O)N(C1CCC(=O)NC1=O)C2 (stereo not drawn) [Compound 215, 3-[7-methoxy-5-[4-[[4-[[1-[6-[5-(1-methylcyclopropoxy)-1H-indazol-3-yl]pyrimidin-4-yl]-4-piperidyl]methyl]piperazin-1-yl]methyl]-1-piperidyl]-1-oxo-isoindolin-2-yl]piperidine-2,6-dione]",< 10,≥ 70
"COc1cc(N2CCC(CN3CCC(F)(CN4CCN(c5cc(-c6n[nH]c7ccc(OC8(C)CC8)cc67)ncn5)CC4)CC3)CC2)cc2c1C(=O)N(C1CCC(=O)NC1=O)C2 (stereo not drawn) [Compound 216, 3-{5-[4-({4-fluoro-4-[(4-{6-[5-(1-methylcyclopropoxy)-1H-indazol-3-yl]pyrimidin-4-yl}piperazin-1-yl)methyl]piperidin-1-yl}methyl)piperidin-1-yl]-7-methoxy-1-oxo-2,3-dihydro-1H-isoindol-2-yl}piperidine-2,6-dione]",< 10,≥ 70
"CC1(Oc2ccc3n[nH]c(-c4cc(N5CCC(CN6CCN(CC7CCN(c8c(F)ccc9c8CN(C8CCC(=O)NC8=O)C9=O)CC7)CC6)CC5)ncn4)c3c2)CC1 (stereo not drawn) [Compound 217, 3-[5-fluoro-4-[4-[[4-[[1-[6-[5-(1-methylcyclopropoxy)-2H-indazol-3-yl]pyrimidin-4-yl]-4-piperidyl]methyl]piperazin-1-yl]methyl]-1-piperidyl]-1-oxo-isoindolin-2-yl]piperidine-2,6-dione]",10 to 50,50 to 70
"CC1(Oc2cc3c(-c4cc(N5CCC(O[C@H]6C[C@H](OC7CCN(c8ccc9c(c8F)CN(C8CCC(=O)NC8=O)C9=O)CC7)C6)CC5)ncn4)n[nH]c3cn2)CC1 (stereo partly drawn) [Compound 218, 3-[4-fluoro-5-[4-[3-[[1-[6-[5-(1-methylcyclopropoxy)-1H-pyrazolo[3,4-c]pyridin-3-yl]pyrimidin-4-yl]-4-piperidyl]oxy]cyclobutoxy]-1-piperidyl]-1-oxo-isoindolin-2-yl]piperidine-2,6-dione]",< 10,50 to 70
"CC1(Oc2ccc3[nH]nc(-c4cc(N5CCC(CN6CCN(CC7CCN(c8c(F)cc9c(c8F)CN(C8CCC(=O)NC8=O)C9=O)CC7)CC6)CC5)ncn4)c3c2)CC1 (stereo not drawn) [Compound 219, 3-[4,6-difluoro-5-[4-[[4-[[1-[6-[5-(1-methylcyclopropoxy)-1H-indazol-3-yl]pyrimidin-4-yl]-4-piperidyl]methyl]piperazin-1-yl]methyl]-1-piperidyl]-1-oxo-isoindolin-2-yl]piperidine-2,6-dione]",< 10,50 to 70
"CC1(Oc2ccc3[nH]nc(-c4cc(N5CCN(CC6(F)CCN(CC7CCN(c8c(F)cc9c(c8F)CN(C8CCC(=O)NC8=O)C9=O)CC7)CC6)CC5)ncn4)c3c2)CC1 (stereo not drawn) [Compound 220, 3-{4,6-difluoro-5-[4-({4-fluoro-4-[(4-{6-[5-(1-methylcyclopropoxy)-1H-indazol-3-yl]pyrimidin-4-yl}piperazin-1-yl)methyl]piperidin-1-yl}methyl)piperidin-1-yl]-1-oxo-2,3-dihydro-1H-isoindol-2-yl}piperidine-2,6-dione]",< 10,50 to 70
"C[C@H]1CN(CC2CCN(c3ccc4c(c3F)CN(C3CCC(=O)NC3=O)C4=O)CC2)CCN1CC1CCN(c2cc(-c3n[nH]c4ccc(OC5(C)CC5)cc34)ncn2)CC1 (stereo partly drawn) [Compound 221, 3-[4-fluoro-5-(4-{[(3S)-3-methyl-4-[(1-{6-[5-(1-methylcyclopropoxy)-1H-indazol-3-yl]pyrimidin-4-yl}piperidin-4-yl)methyl]piperazin-1-yl]methyl}piperidin-1-yl)-1-oxo-2,3-dihydro-1H-isoindol-2-yl]piperidine-2,6-dione]",< 10,50 to 70
"C[C@H]1CN(CC2CCN(c3cc(-c4n[nH]c5ccc(OC6(C)CC6)cc45)ncn3)CC2)CCN1CC1CCN(c2ccc3c(c2F)CN(C2CCC(=O)NC2=O)C3=O)CC1 (stereo partly drawn) [Compound 222, 3-[4-fluoro-5-(4-{[(2S)-2-methyl-4-[(1-{6-[5-(1-methylcyclopropoxy)-1H-indazol-3-yl]pyrimidin-4-yl}piperidin-4-yl)methyl]piperazin-1-yl]methyl}piperidin-1-yl)-1-oxo-2,3-dihydro-1H-isoindol-2-yl]piperidine-2,6-dione]",< 10,≥ 70
